Laboratory results taken from patent US20260218197A1, “EXTRACELLULAR VESICLE SECRETION REDUCING AGENT FOR REDUCING EXTRACELLULAR VESICLE SECRETION, AND USE OF THE SAME” (THEORIA SCIENCE INC., priority 2020, published 2026).

Legend:
[1] = system: MDA-MB-231_Luc_D3H2LN cell line; test: Mice implanted with breast cancer metastatic cell line; format: in vivo; conditions: 40 mg/kg intraperitoneal injection every day from Day 7, vs non-administration group (PBS)
Protocol: As a breast cancer metastatic cell line, an MDA-MB-231_Luc_D3H2LN cell line (hereafter referred to as D3H2LN) was used. […] Specifically, the amounts of secreted EVs in the parent cell line and the D3H2LN were measured by the NTA analysis in the same manner as in Example A1, and also, expression of PSAT1 in the parent cell line and the D3H2LN were measured by Western blotting.
Immunodeficient mice C. B-17 scid mice (female, 6-week old) were used as mice. The D3H2LN was suspended in PBS to prepare a cell suspension of 1×10^6 cells/100 μL. Then, on the 0th day (Day 0), 100 μL of the cell suspension was subcutaneously implanted in the mammary gland of each mouse by injection. Then, on the 7th day (Day7), the D3H2LN cells had engrafted, and to mice of an inhibitor administration group (n=6), an NCT-503 solution (solvent: PBS) was administered by intraperitoneal injection every day at 40 mg/kg of body weight. To mice of a non-administration group (n=6, Vehicle), the same amount of PBS was administered every day instead of the NCT-503. For each of the mice in both the administration group and the non-administration group, the tumor volume in the primary lesion (mammary gland) was measured every week using an IVIS-Spectrum (Summit Pharmaceuticals International Corporation). Specifically, the tumor volume was calculated as per the mathematical expression using the longest diameter and the shortest diameter (shortest diameter×shortest diameter×longest diameter×0.5). Also, the body weight of each mouse was measured every day to determine the toxicity. On the 35th day (Day 35), the mice were sacrificed and the mammary gland as the primary lesion and the lungs as the metastatic lesion were excised from each mouse, after which the weight of the primary lesion was measured.

[2] = system: lung cancer cells A549; test: CD63 immunofluorescence / coimmunostaining (intracellular EV accumulation); format: cell-based, human; conditions: A549, 2.5 μmol/L, 48 hours, serine-deficient medium, compared with NC (DMSO)
Protocol: (§1) Colorectal cancer cells HCT116 and lung cancer cells A549 were transfected with siRNA (siPSAT1) in the same manner as in the item (2) in Example A1, and EV biogenesis after PSAT1 silencing was examined. For the respective silenced transformants, CD63 and PSAT1 were examined by immunofluorescence.
(§2) Further, coimmunostaining of the EV marker CD63 and also an early endosome marker EEA1 or a late endosome marker Rab7 was conducted for the PSAT1-silenced transformants. As a result, no overlap was observed between EEA1 and CD63 in either the PSAT1-silenced transformants or the negative control transformants. […] On this account, the CD63 single-positive area was measured based on the intensity. […] This confirmed that EVs had accumulated in the cells.
(§3) Specifically, the test was performed in the following manner. Colorectal cancer cells HCT116 and lung cancer cells A549 were each seeded in a 6-well plate at 1.5×10^5 cells/well (Day 0), and incubated for 24 hours in a medium (DMEM with 10% FBS, 1×anti-anti medium). After the incubation (Day 1), the above-described medium was removed, and thereafter, a serine-deficient medium and an inhibitor solution were added to the wells. The inhibitor solution was prepared by dissolving NCT-503 in DMSO, and the concentration of the inhibitor per well was set to 2.5 μmol/L. Then, after another 48 hours of incubation (Day 3), the medium in the wells was collected and the cells in the wells were counted. As negative controls (NC), the test was performed in the same manner, except that DMSO was added instead of the inhibitor solution.
(§4) EVs accumulated in the cells were analyzed in the following manner. Specifically, the collected cells were immunostained, the CD63 single-positive area was measured based on the fluorescence intensity, and the fluorescence intensity measured in the area was divided by the number of nuclei to determine the amount of EVs accumulated in each cell. On the other hand, secreted EVs were collected from the collected medium and then subjected to the NTA. In the NTA, the amount of secreted EVs was determined as a relative value calculated assuming that the amount of the secreted EVs in the negative control was 1.

[3] = system: colorectal cancer cells HCT116; test: as above; format: cell-based, human; conditions: HCT116, 2.5 μmol/L, 48 hours, serine-deficient medium, compared with NC (DMSO)
Protocol: as §1, §2, §3, §4

## Cc1cc(C)nc(NC(=S)N2CCN(Cc3ccc(C(F)(F)F)cc3)CC2)c1 [NCT-503]
[1]; Day 21 and Day 35
  tumor volume of the primary lesion (mammary gland): significantly reduced
[1]; Day 35
  metastatic lesions in the lungs (HE-stained): fewer metastatic lesions
  tumor weight of the primary lesion (mammary gland): significantly reduced
[2]
  amount of EVs accumulated in each cell (CD63 single-positive fluorescence intensity / number of nuclei): larger
[3]
  amount of EVs accumulated in each cell (CD63 single-positive fluorescence intensity / number of nuclei): larger
